Measured values published in ChEMBL document CHEMBL1131425 (J Med Chem, 1998).

Assays:
[1] = molecular target: T1, 5-hydroxytryptamine receptor 1A (Rattus norvegicus, UniProt P19327); test: Binding affinity against rat 5-hydroxytryptamine 1A receptor in CHO cells.; assay type: cell-based
T1 sequence (P19327 whole entry): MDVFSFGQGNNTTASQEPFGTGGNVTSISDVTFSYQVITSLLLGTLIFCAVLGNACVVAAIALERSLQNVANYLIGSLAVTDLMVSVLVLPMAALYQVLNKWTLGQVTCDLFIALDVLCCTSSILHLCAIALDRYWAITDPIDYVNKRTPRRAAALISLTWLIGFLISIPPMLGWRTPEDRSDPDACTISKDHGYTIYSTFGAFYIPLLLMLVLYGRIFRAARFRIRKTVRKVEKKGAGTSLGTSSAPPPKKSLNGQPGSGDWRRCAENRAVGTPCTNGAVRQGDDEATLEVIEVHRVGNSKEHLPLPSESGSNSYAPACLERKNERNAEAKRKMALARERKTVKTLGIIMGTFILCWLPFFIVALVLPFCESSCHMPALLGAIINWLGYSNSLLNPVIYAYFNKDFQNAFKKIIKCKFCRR

[2] = molecular target: 5-hydroxytryptamine receptor 2A (Rattus norvegicus, UniProt P14842); test: Binding affinity against rat 5-hydroxytryptamine 2A receptor in NIH3T3 cells.; assay type: cell-based
5-hydroxytryptamine receptor 2A, sequence (P14842 whole entry): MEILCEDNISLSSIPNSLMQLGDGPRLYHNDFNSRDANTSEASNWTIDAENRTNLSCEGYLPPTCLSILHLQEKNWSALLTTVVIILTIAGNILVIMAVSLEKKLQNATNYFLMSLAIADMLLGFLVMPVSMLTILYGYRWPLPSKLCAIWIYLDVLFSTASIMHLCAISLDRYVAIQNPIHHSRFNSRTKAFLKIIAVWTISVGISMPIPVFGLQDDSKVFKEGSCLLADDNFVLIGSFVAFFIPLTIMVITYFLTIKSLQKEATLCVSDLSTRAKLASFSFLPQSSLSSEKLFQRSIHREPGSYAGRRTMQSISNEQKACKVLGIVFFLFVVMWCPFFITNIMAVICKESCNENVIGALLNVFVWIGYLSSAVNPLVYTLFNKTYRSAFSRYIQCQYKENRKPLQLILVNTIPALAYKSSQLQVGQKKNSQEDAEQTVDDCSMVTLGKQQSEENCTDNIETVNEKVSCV

[3] = molecular target: T2, 5-hydroxytryptamine receptor 2C (Rattus norvegicus, UniProt P08909); test: Binding affinity against rat 5-hydroxytryptamine 2C receptor in A-9 cells.; assay type: cell-based
T2 sequence (P08909 whole entry): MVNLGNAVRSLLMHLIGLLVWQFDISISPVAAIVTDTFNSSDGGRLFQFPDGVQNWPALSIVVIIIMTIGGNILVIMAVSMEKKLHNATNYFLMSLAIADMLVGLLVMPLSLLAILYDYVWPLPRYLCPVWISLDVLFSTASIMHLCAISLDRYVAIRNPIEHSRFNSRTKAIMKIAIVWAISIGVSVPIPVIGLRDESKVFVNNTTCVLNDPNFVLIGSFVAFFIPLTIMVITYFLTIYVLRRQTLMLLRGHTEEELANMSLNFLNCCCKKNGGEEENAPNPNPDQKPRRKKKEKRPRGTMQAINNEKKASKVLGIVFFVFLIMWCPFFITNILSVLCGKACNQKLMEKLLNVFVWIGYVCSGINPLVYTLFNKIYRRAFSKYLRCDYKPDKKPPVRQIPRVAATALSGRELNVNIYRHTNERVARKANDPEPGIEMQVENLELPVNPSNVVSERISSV

D(2) dopamine receptor = D(2) dopamine receptor (Rattus norvegicus, UniProt P61169); test: Binding affinity against rat Dopamine receptor D2.
D(2) dopamine receptor, sequence (P61169 whole entry): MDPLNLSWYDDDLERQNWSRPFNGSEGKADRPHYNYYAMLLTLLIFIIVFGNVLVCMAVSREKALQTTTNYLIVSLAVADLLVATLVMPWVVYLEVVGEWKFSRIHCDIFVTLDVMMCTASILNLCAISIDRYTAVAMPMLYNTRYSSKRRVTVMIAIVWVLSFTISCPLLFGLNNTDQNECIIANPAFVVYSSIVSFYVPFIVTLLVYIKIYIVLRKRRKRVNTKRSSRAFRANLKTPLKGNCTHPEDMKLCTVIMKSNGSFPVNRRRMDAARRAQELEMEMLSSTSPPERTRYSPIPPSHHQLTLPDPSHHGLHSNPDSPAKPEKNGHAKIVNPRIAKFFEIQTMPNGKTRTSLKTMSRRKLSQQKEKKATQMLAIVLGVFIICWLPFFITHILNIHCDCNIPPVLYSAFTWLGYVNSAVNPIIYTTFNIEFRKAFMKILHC

SMILES | Ki [1] [nM] | Ki [2] [nM] | Ki [3] [nM] | Ki (D(2) dopamine receptor) [nM]
O=C(CCCN1CCC2(CC1)NCNC2=O)c1ccc(F)cc1 | > 10000 | 5600 | > 10000 | –
CN1CN(C)C2(CCN(CCCC(=O)c3ccc(F)cc3)CC2)C1=O | > 10000 | 45 | > 10000 | 300
CN1CN(Cc2ccccc2)C(=O)C12CCN(CCCC(=O)c1ccc(F)cc1)CC2 | 265 | 22 | 1400 | –
CC(C)N1CN(C)C2(CCN(CCCC(=O)c3ccc(F)cc3)CC2)C1=O | 6300 | 7 | > 10000 | 46
CNC1(C(N)=O)CCN(CCCC(=O)c2ccc(F)cc2)CC1 | > 10000 | 130 | 4480 | –
CC(C)NC1(C(N)=O)CCN(CCCC(=O)c2ccc(F)cc2)CC1 | > 10000 | 14 | 426 | 400
O=C(CCCN1CCC2(CC1)C(=O)NCN2C1CCCCC1)c1ccc(F)cc1 | – | 0.7 | 677 | 0.7
CCCCN1CN(C)C2(CCN(CCCC(=O)c3ccc(F)cc3)CC2)C1=O | > 10000 | 19 | > 10000 | 13
CN1CNC(=O)C12CCN(CCCC(=O)c1ccc(F)cc1)CC2 | > 10000 | 23 | > 10000 | 220
CCCN1CN(C)C2(CCN(CCCOc3ccc(F)cc3)CC2)C1=O | > 10000 | 19 | > 10000 | 230
CCCN1CN(C)C2(CCN(CCCC(=O)c3ccc(F)cc3)CC2)C1=O | > 10000 | 20 | > 10000 | 130
CN1CNC(=O)C12CCN(CCCOc1ccc(F)cc1)CC2 | – | 35 | > 10000 | 734
CCN1CNC(=O)C12CCN(CCCC(=O)c1ccc(F)cc1)CC2 | 7960 | 170 | > 10000 | 170
CCN1CN(C)C2(CCN(CCCC(=O)c3ccc(F)cc3)CC2)C1=O | > 10000 | 21 | > 10000 | –
NC(=O)C1(NC2CCCCC2)CCN(CCCC(=O)c2ccc(F)cc2)CC1 | 1610 | 6 | 270 | 43
CC(C)N1CNC(=O)C12CCN(CCCC(=O)c1ccc(F)cc1)CC2 | 2340 | 38 | > 10000 | 400
NC(=O)C1(N)CCN(CCCC(=O)c2ccc(F)cc2)CC1 | – | 420 | > 10000 | –
O=C(CCCN1CCC2(CC1)C(=O)NCN2c1ccccc1)c1ccc(F)cc1 [SPIPERONE] | 58 | – | – | –
